Values quoted from earlier work, collected in patent US20080214592A1, “METHODS OF TREATING ANXIETY DISORDERS” (Orexigen Therapeutics, Inc., priority 2005, published 2008).

**Q.** Which physiological half life does the source give for `CNCCC(Oc1ccc(C(F)(F)F)cc1)c1ccccc1` (stereo not shown) [Fluoxetine, fluoxetine] here?
**A.** about 24 hours
